Reference: patent publication US11053230B2, “3-hydroxy-imidazolidin-4-one compounds as inhibitors of indoleamine 2,3-dioxygenase” (Netherlands Translational Research Center B.V., priority 2017, dated 2021)
Where “and” joins values, the source holds several entries; their conditions need not be identical. Equal values may be shown once.

Legend:
melanoma = conditions: mouse model for melanoma; cited from earlier work
colon cancer = conditions: mouse model for colon cancer; cited from earlier work
[1] = biological target: tryptophan 2,3-dioxygenase (TDO) (Homo sapiens, UniProt P48775); conditions: biochemical assays; cited from earlier work
Chain of tryptophan 2,3-dioxygenase (TDO) (P48775 whole entry, species assumed): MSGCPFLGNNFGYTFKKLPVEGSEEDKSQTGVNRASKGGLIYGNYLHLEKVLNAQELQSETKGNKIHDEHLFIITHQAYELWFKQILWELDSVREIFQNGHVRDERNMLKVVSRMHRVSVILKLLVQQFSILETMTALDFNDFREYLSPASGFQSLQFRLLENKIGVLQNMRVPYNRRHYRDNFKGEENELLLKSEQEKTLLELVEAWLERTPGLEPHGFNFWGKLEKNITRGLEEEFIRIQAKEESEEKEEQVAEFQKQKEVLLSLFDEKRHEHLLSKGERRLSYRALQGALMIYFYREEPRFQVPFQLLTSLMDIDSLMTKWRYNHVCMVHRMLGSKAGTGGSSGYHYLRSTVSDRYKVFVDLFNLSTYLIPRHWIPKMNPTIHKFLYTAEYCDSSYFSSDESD

lung carcinoma = conditions: syngeneic mouse lung carcinoma model and transgenic mouse model; cited from earlier work
[2] = tested on: melanoma and glioblastoma; conditions: mouse tumor models for melanoma and glioblastoma; cited from earlier work
[3] = tested on: IDO1 expressed in mouse tumor cells; conditions: pre-immunized mice; cited from earlier work
influenza virus = conditions: influenza virus-infected mice; cited from earlier work
Leishmania major = conditions: in vivo; cited from earlier work
IDO1 = biological target: T1, IDO1 (Homo sapiens, UniProt P14902); assay: Biochemical IDO1 assay (NFK GreenScreen); conditions: for IC50: NFK GreenScreen, 25 nM IDO1, 100 μM L-tryptophan, read-out: IC50, inhibitory potency on IDO1; for relative activity of the separated isomers: stated in the synthesis examples, assay not named
T1 construct: Recombinant full-length IDO1 (Seegers, N., et al.) and all other assay components were diluted in IDO1 reaction buffer; made in house
T1 sequence (P14902 whole entry): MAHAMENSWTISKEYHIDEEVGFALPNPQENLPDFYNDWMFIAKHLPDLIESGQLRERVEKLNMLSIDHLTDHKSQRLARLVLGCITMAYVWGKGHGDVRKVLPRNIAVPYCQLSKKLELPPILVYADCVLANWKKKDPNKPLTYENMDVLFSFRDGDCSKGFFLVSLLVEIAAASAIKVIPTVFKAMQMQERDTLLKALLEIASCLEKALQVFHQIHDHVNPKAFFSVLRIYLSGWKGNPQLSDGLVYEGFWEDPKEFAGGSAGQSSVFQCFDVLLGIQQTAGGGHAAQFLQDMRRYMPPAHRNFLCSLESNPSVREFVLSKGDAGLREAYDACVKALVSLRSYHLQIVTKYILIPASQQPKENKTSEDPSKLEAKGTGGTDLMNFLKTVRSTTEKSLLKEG
Procedure, shortened: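 Recombinant full-length IDO1 in 50 mM NaH2PO4 pH 7.0 with 0.05% Tween-20 and 1% glycerol converted 100 μM L-tryptophan (final) over 60 min at room temperature with compound, 0.3% DMSO.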

plasma kynurenine levels = conditions: phase 1, advanced solid malignancies, all doses; cited from earlier work
[4] = randomized, open-label, phase 2, ovarian cancer patients; cited from earlier work

Structure (SMILES) | IC50 (IDO1) | further results
Nc1nonc1C(=NO)Nc1ccc(F)c(Cl)c1 [compound 51, 4-amino-N-(3-chloro-4-fluorophenyl)-N′-hydroxy-1,2,5-oxadiazole-3-carboximidamide] | – | tumor growth (melanoma): reduction of tumor growth; tumor growth (colon cancer): reduction of tumor growth; inhibition of TDO activity [1]: inhibit the activity of tryptophan 2,3-dioxygenase (TDO)
Cn1cc(C[C@H](N)C(=O)O)c2ccccc21 [Example 1-MT, 1-methyl-L-tryptophan] | – | efficacy of a cancer vaccine in combination (lung carcinoma): increased the efficacy of a cancer vaccine; efficacy of PD-1 and CTLA4 antibodies in combination [2]: increased the efficacy of antibodies; reversal of IDO1-mediated prevention of tumor cell rejection [3]: this effect could be reverted; T cell response against the virus (influenza virus): enhanced T cell response against the virus; parasite burden (Leishmania major): reduced the parasite burden
O=C1CN(C(=O)c2c(F)ccc(-c3ccc(F)cc3)c2F)C(c2cc(Br)cs2)N1O (stereo not drawn) [Example 136, 2-(4-Bromo-2-thienyl)-1-[2,6-difluoro-3-(4-fluorophenyl)benzoyl]-3-hydroxy-imidazolidin-4-one] | ≤ 1000 nM | –
O=C1CN(Cc2ccccc2F)C(c2csc(Br)c2)N1O (stereo not drawn) [Example 42, 2-(5-Bromo-3-thienyl)-1-[(2-fluorophenyl)methyl]-3-hydroxy-imidazolidin-4-one] | ≤ 1000 nM | –
O=C1CN(C(=O)c2c(F)cc(C#CC3CCCCC3)cc2F)C(c2cc(Br)cs2)N1O (stereo not drawn) [Example 78, 2-(4-Bromo-2-thienyl)-1-[4-(2-cyclohexylethynyl)-2,6-difluoro-benzoyl]-3-hydroxy-imidazolidin-4-one] | ≤ 1000 nM | –
O=C1CN(C(=O)c2c(F)ccc(-c3ccccc3)c2F)C(c2csc(Br)c2)N1O (stereo not drawn) [Example 123, 2-(5-Bromo-3-thienyl)-1-(2,6-difluoro-3-phenyl-benzoyl)-3-hydroxy-imidazolidin-4-one] | ≤ 1000 nM | –
C=Cc1cc(F)c(C(=O)N2CC(=O)N(O)C2c2cc(Br)cs2)c(F)c1 (stereo not drawn) [Example 83, 2-(4-Bromo-2-thienyl)-1-(2,6-difluoro-4-vinyl-benzoyl)-3-hydroxy-imidazolidin-4-one] | ≤ 1000 nM | –
O=C1CN(C(=O)c2c(F)cccc2Cl)C(c2csc(Br)c2)N1O (stereo not drawn) [Example 99, 2-(5-Bromo-3-thienyl)-1-(2-chloro-6-fluoro-benzoyl)-3-hydroxy-imidazolidin-4-one] | ≤ 1000 nM | –
Cc1ccc(F)c(C(=O)N2CC(=O)N(O)C2c2cc(Br)cs2)c1F (stereo not drawn) [Example 77, 2-(4-Bromo-2-thienyl)-1-(2,6-difluoro-3-methyl-benzoyl)-3-hydroxy-imidazolidin-4-one] | ≤ 1000 nM | –
COc1ccc(F)c(C(=O)N2CC(=O)N(O)C2c2csc(Br)c2)c1F (stereo not drawn) [Example 104, 2-(5-Bromo-3-thienyl)-1-(2,6-difluoro-3-methoxy-benzoyl)-3-hydroxy-imidazolidin-4-one] | ≤ 1000 nM | –
Cn1cc(-c2ccc(F)c(C(=O)N3CC(=O)N(O)C3c3csc(Br)c3)c2F)cn1 (stereo not drawn) [Example 124, 2-(5-Bromo-3-thienyl)-1-[2,6-difluoro-3-(1-methylpyrazol-4-yl)benzoyl]-3-hydroxy-imidazolidin-4-one] | ≤ 1000 nM | –
O=C1CN(C(=O)c2ccccc2F)C(c2cc(Br)cs2)N1O (stereo not drawn) [Example 9, 2-(4-Bromo-2-thienyl)-1-(2-fluorobenzoyl)-3-hydroxy-imidazolidin-4-one] | ≤ 1000 nM | –
NS(=O)(=O)NCCNc1nonc1C(=NO)Nc1ccc(F)c(Br)c1 [epacadostat] | – | plasma kynurenine levels (plasma kynurenine levels): significant dose-dependent reductions; tumor growth (colon cancer): further reduction of tumor growth; tolerability [4]: generally well tolerated
O=C1CN(C(=O)c2c(F)cccc2Cl)C(c2ccc(Br)s2)N1O (stereo not drawn) [Example 3, 2-(5-Bromo-2-thienyl)-1-(2-chloro-6-fluoro-benzoyl)-3-hydroxy-imidazolidin-4-one] | ≤ 5000 nM and 1000 to 5000 nM | –
O=C1CN(C(=O)c2c(F)ccc(Br)c2F)C(c2cc(Br)cs2)N1O (stereo not drawn) [Example 74, 1-(3-Bromo-2,6-difluoro-benzoyl)-2-(4-bromo-2-thienyl)-3-hydroxy-imidazolidin-4-one] | ≤ 1000 nM | –
O=C1CN(C(=O)c2c(F)cccc2F)C(c2ccc(Br)s2)N1O (single isomer, unassigned) [Example 49a, 2-(5-Bromo-2-thienyl)-1-(2,6-difluorobenzoyl)-3-hydroxy-imidazolidin-4-one] | ≤ 5000 nM and 1000 to 5000 nM | relative activity of the separated isomers (IDO1): less active isomer
Cc1cc(F)c(C(=O)N2CC(=O)N(O)C2c2cc(Br)cs2)c(F)c1 (stereo not drawn) [Example 84, 2-(4-Bromo-2-thienyl)-1-(2,6-difluoro-4-methyl-benzoyl)-3-hydroxy-imidazolidin-4-one] | ≤ 1000 nM | –
Cc1ccc(F)c(C(=O)N2CC(=O)N(O)C2c2csc(Br)c2)c1F (stereo not drawn) [Example 102, 2-(5-Bromo-3-thienyl)-1-(2,6-difluoro-3-methyl-benzoyl)-3-hydroxy-imidazolidin-4-one] | ≤ 1000 nM | –
O=C1CN(C(=O)c2c(F)cccc2F)C(c2csc(Br)c2)N1O (single isomer, unassigned) [Example 46b, 2-(5-Bromo-3-thienyl)-1-(2,6-difluorobenzoyl)-3-hydroxy-imidazolidin-4-one] | ≤ 1000 nM | relative activity of the separated isomers (IDO1): most active isomer
O=C1CN(C(=O)c2c(F)cc(-c3cccnc3)cc2F)C(c2cc(Br)cs2)N1O (stereo not drawn) [Example 88, 2-(4-Bromo-2-thienyl)-1-[2,6-difluoro-4-(3-pyridyl)benzoyl]-3-hydroxy-imidazolidin-4-one] | ≤ 1000 nM | –
Cn1cc(-c2ccc(F)c(C(=O)N3CC(=O)N(O)C3c3cc(Br)cs3)c2F)cn1 (stereo not drawn) [Example 125, 2-(4-Bromo-2-thienyl)-1-[2,6-difluoro-3-(1-methylpyrazol-4-yl)benzoyl]-3-hydroxy-imidazolidin-4-one] | ≤ 1000 nM | –
O=C1CN(C(=O)c2ccc(Oc3ccccc3)cc2)C(c2cc(Br)cs2)N1O (stereo not drawn) [Example 54, 2-(4-Bromo-2-thienyl)-3-hydroxy-1-(4-phenoxybenzoyl)imidazolidin-4-one] | ≤ 5000 nM and 1000 to 5000 nM | –
O=C1CN(C(=O)c2c(F)cc(CCC3CCCCC3)cc2F)C(c2cc(Br)cs2)N1O (stereo not drawn) [Example 92, 2-(4-Bromo-2-thienyl)-1-[4-(2-cyclohexylethyl)-2,6-difluoro-benzoyl]-3-hydroxy-imidazolidin-4-one] | ≤ 5000 nM and 1000 to 5000 nM | –
O=C1CN(C(=O)c2c(F)cc(-c3cn[nH]c3)cc2F)C(c2cc(Br)cs2)N1O (stereo not drawn) [Example 96, 2-(4-bromo-2-thienyl)-1-[2,6-difluoro-4-(1H-pyrazol-4-yl)benzoyl]-3-hydroxy-imidazolidin-4-one] | ≤ 1000 nM | –
CC(C)CCc1cc(F)c(C(=O)N2CC(=O)N(O)C2c2cc(Br)cs2)c(F)c1 (stereo not drawn) [Example 95, 2-(4-Bromo-2-thienyl)-1-(2,6-difluoro-4-isopentyl-benzoyl)-3-hydroxy-imidazolidin-4-one] | ≤ 5000 nM and 1000 to 5000 nM | –
O=C1CN(C(=O)c2ccccc2C(F)(F)F)C(c2cc(Br)cs2)N1O (stereo not drawn) [Example 56, 2-(4-Bromo-2-thienyl)-3-hydroxy-1-[2-(trifluoromethyl)benzoyl]imidazolidin-4-one] | ≤ 5000 nM and 1000 to 5000 nM | –
CS(=O)(=O)NCC#Cc1cc(F)c(C(=O)N2CC(=O)N(O)C2c2cc(Br)cs2)c(F)c1 (stereo not drawn) [Example 40, N-[3-[4-[2-(4-bromo-2-thienyl)-3-hydroxy-4-oxo-imidazolidine-1-carbonyl]-3,5-difluoro-phenyl]-prop-2-ynyl]methanesulfonamide] | ≤ 1000 nM | –
N#Cc1csc(C2N(O)C(=O)CN2C(=O)c2ccccc2F)c1 (stereo not drawn) [Example 31, 5-[1-(2-Fluorobenzoyl)-3-hydroxy-4-oxo-imidazolidin-2-yl]thiophene-3-carbonitrile] | ≤ 5000 nM and 1000 to 5000 nM | –
O=C1CN(C(=O)c2c(F)cccc2F)C(c2cc(Br)c(Cl)s2)N1O (stereo not drawn) [Example 115, 2-(4-Bromo-5-chloro-2-thienyl)-1-(2,6-difluorobenzoyl)-3-hydroxy-imidazolidin-4-one] | ≤ 1000 nM | –
